# In patent US20170027968A1, “ANTI-CANCER AGENT” (KTN BIOTEC, INC., priority 2013, published 2017):
# Tests used:
# [1] = tested on: Met5A (human non-malignant mesothelioma cell); assay: Cell viability assay (MTT), Met5A; format: cell-based; details: Met5A, 1, 10, 100 μM, 24 hr or 48 hr; FIG. 3A
# Description: (§1) NCI-H28 which is a cell line of human malignant pleural mesothelioma and Met5A which is a cell line of human non-malignant mesothelioma were used. These cells were purchased from American Type Culture Collection (Manassas, Va., USA). The cells were cultured in Roswell Park Memorial Institute (RPMI)-1640 medium added with 0.003% (w/v) L-glutamine. The cells were incubated in a medium added with 10% (v/v) heat-inactivated bovine serum, penicillin (final concentration, 100 U/ml) and streptomycin (final concentration, 0.1 mg/ml) in a humid environment under 5% CO2 and 95% air at 37° C.
# (§2) The cell viability was evaluated according to previous report (Nogi Y, et al., Cell Physiol Biochem 2012; 30: 61-74.) by using 3-(4,5-dimethyl-2-thiazolyl)-2,5-diphenyl-2H-tetrazolium bromide (MTT). The measurement was performed by treating Met5A (human non-malignant mesothelioma cell) and NCI-H28 (human malignant mesothelioma cell) for 24 hr or 48 hr while changing the concentration of DPPE to 0, 1 μM, 10 μM and 100 μM.
# [2] = tested on: Human recombinant PP2A; assay: Assay of PP2A activity under cell-free conditions (p-NPP substrate); details: 100 μM, preincubated 37° C. 30 min, p-NPP 0.5 mM 60 min, FIG. 1A
# Description: (§4) Human recombinant PP2A was purchased from Millipore (Billerica, Mass., USA). Human PTP1B was cloned to pGEX-6P-3 vector having a GST tag on the NH2 terminal, and expressed in competent E. coli 3L21 (DE3) suitable for transformation and protein expression. GST fused PTP1B was affinity-purified using glutathione sepharose 4B (GE Healthcare Bio-Science KK, Tokyo, Japan). They were reacted with p-nitrophenylphosphate (p-NPP) (Sigma, St. Louis, Mo., USA) as a substrate, and each phosphatase activity was measured. PP2A (0.2 U/well) or PTP1B (1 mg/well) was preincubated in a reaction medium at 37° C. for 30 min. in the presence and absence of a phosphatase inhibitor (okadaic acid; 2 nM, sodium vanadate; 1 μM) and, phosphatidylethanolamine (DAPE, DLPE, DOPE, DPPE; 100 μM, all obtained from Avanti Polar Lipids, Inc. (Alabaster, Ala., USA)). • reaction medium for PP2A: 50 mM Tris-HCl, 0.1 mM EGTA, 0.1% (v/v) 2-mercaptoethanol, pH 7.0 • reaction medium for PTP1B: 50 mM HEPES, 1 mM EDTA, 50 mM NaCl, 1 mM dithiothreitol, pH 7.2
# (§5) Then, p-NPP (0.5 mM for PP2A, 10 mM for PTP1B) was added to the reaction medium and incubation was continued for 60 min. The reaction was discontinued by adding 0.1N NaOH. Dephosphorylated p-NPP, namely, p-NP, was quantified at absorbance 405 nm by using SpectraMax PLUS384 (Molecular Devices, Sunnyvale, Calif., USA).
# [3] = molecular target: T1, Human PTP1B (GST fused) (Homo sapiens, UniProt P18031); assay: Assay of PTP1B activity under cell-free conditions (p-NPP substrate); details: 100 μM, preincubated 37° C. 30 min, p-NPP 10 mM 60 min, FIG. 1B
# T1 sequence (P18031 1-435): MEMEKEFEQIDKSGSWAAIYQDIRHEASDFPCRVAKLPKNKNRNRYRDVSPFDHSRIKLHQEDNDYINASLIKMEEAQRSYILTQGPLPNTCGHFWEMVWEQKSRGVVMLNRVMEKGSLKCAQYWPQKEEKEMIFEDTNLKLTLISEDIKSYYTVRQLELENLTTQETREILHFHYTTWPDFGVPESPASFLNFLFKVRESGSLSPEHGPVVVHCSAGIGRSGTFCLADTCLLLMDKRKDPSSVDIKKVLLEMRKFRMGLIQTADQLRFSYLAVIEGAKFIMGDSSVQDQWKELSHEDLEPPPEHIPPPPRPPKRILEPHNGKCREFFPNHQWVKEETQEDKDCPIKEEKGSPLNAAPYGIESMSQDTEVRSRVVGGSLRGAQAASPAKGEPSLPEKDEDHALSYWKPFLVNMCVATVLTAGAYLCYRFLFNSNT
# Description: as §4, §5
# [4] = tested on: Met5A (human non-malignant mesothelioma cell); assay: TUNEL staining, Met5A; format: cell-based; details: 30 μM and 100 μM, 48 hr, FIG. 4
# Description: (§3) NCI-H28 which is a cell line of human malignant pleural mesothelioma and […] which is a cell line of human non-malignant mesothelioma were used. These cells were purchased from American Type Culture Collection (Manassas, Va., USA). The cells were cultured in Roswell Park Memorial Institute (RPMI)-1640 medium added with 0.003% (w/v) L-glutamine. The cells were incubated in a medium added with 10% (v/v) heat-inactivated bovine serum, penicillin (final concentration, 100 U/ml) and streptomycin (final concentration, 0.1 mg/ml) in a humid environment under 5% CO2 and 95% air at 37° C. To detect in situ DNA fragmentation to be the index of apoptosis, TUNEL staining was performed using In Situ Apoptosis Detection Kit (Takara Bio; Otsu, Japan). The cells fixed and membrane-permeabilized were incubated with terminal deoxynucleotidyl transferase and fluorescein isothiocyanate (FITC)-deoxyuridinetriphosphate at 37° C. for 90 min. FITC signal was visualized by a confocal laser microscope (LSM 510; Carl Zeiss Co., Ltd., Oberkochen, Germany). The cells used were […] (human non-malignant mesothelioma cell) and NCI-H28 (human malignant mesothelioma cell), after a treatment for 48 hr by changing the concentration of DPPE to 0, 30 μM and 100 μM.
# [5] = tested on: NCI-H28 (human malignant mesothelioma cell); assay: TUNEL staining, NCI-H28; format: cell-based; details: NCI-H28, 30 μM and 100 μM, 48 hr; FIG. 4
# Description: as §3
# [6] = tested on: NCI-H28 (human malignant mesothelioma cell); assay: Cell viability assay (MTT), NCI-H28; format: cell-based; details: NCI-H28, 1, 10, 100 μM, 24 hr or 48 hr; FIG. 3B
# Description: as §1, §2
smiles,measurement,setting,value
"CCCCCC/C=C\CCCCCCCC(=O)OC[C@H](COP(=O)(O)OCCN)OC(=O)CCCCCCC/C=C\CCCCCC [DPPE, 1,2-dipalmitoleoyl-sn-glycero-3-phosphoethanolamine]",cell survival rate (MTT),[1],almost uninfluential on the non-malignant mesothelioma cell
same,PP2A activation enhancing action (phosphatase activity relative to control),[2],strong PP2A activation enhancing action
same,PTP1B activation enhancing action (phosphatase activity relative to control),[3],PTP1B activation enhancing action
same,apoptosis (TUNEL-stained cells relative to total cells),[4],does not induce apoptosis of the non-malignant mesothelioma cell
same,apoptosis (TUNEL-stained cells relative to total cells),[5],induces apoptosis of the malignant mesothelioma cell
same,cell survival rate (MTT),[6],induces concentration-dependent cell death in the malignant mesothelioma cell
